Earlier results as cited in patent US11957711B2 (priority 2021, dated 2024).

Assays:
[1] = system: germs
[2] = parts per million in gas; gas generated from HTH and carbon dioxide

Row | SMILES | time to kill the germs [1] | maximum allowable concentration [2] | Solubility in water | Solubility in other solvent (CCL4)
1 | OCl [HCLO, Hypochlorous acid] | a few seconds | – | – | –
2 | ClOCl [CL2O, Dichlorine monoxide] | – | around 1.25 ppm | 143 g/100 g | soluble in CCL4
